#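 Dose response: 5 concentrations. Exposure: 48 h. Format: 96-well plates. Endpoint: linear interpolation; highest concentration if not reached. Abbreviation: GI50, concentration required for 50% inhibition of growth. The concentration for full growth arrest is given as TGI.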
# How the values were obtained:
# Experiment in all cases: DTP human tumour cell line panel, 48 h
# [1] = test system: HS 578T breast
# [2] = test system: NCI-H23 lung
# [3] = test system: OVCAR-5 ovarian
# [4] = test system: MDA-N
# [5] = test system: COLO 205 colon
# [6] = test system: RPMI-8226 leukemia
# [7] = test system: SW-620 colon
# [8] = test system: NCI-H522 lung
# [9] = test system: K-562 leukemia
# [10] = test system: NCI-H460 lung
Structure (SMILES),TGI [1],TGI [2],TGI [3],TGI [4],TGI [5],TGI [6],TGI [7],TGI [8],TGI [9],TGI [10],GI50 [1],GI50 [2],GI50 [3],GI50 [5],GI50 [6],GI50 [7],GI50 [8],GI50 [9],GI50 [10]
N#Cc1nc(CCC(C(=O)O)N2C(=O)c3ccccc3C2=O)oc1N (stereo not given),> 100 µM,> 100 µM,> 100 µM,> 100 µM,> 100 µM,> 100 µM,> 100 µM,> 100 µM,> 100 µM,> 100 µM,,,,,,,,,
CC(=O)OC1=C(c2ccccc2)S(=O)(=O)c2ccccc21,> 100 µM,> 100 µM,> 100 µM,,> 100 µM,> 100 µM,> 100 µM,> 100 µM,> 100 µM,> 100 µM,,,,,,,,,
CN(C)CCCCN1c2ccccc2Sc2ccc(N=[N+]=[N-])cc21,18.4 µM,27.7 µM,13.5 µM,3.59 µM,3.13 µM,5.45 µM,16.8 µM,14.1 µM,4.56 µM,16.2 µM,,,,,,,,,
CC(=O)OC(C(=O)NNC(=O)OC(C)(C)C)c1ccccc1 (stereo not given),> 100 µM,> 100 µM,> 100 µM,> 100 µM,> 100 µM,> 100 µM,> 100 µM,> 100 µM,> 100 µM,> 100 µM,,,,,,,,,
NS(=O)(=O)c1ccc(NNc2c3ccccc3nc3c(C(=O)Nc4ccc(S(N)(=O)=O)cc4)cccc23)cc1,> 100 µM,> 100 µM,> 100 µM,> 100 µM,> 100 µM,> 100 µM,> 100 µM,50.8 µM,62.1 µM,> 100 µM,,,,,,,,,
NC(Cc1c2ccccc2cc2ccccc12)C(=O)O (stereo not given),,> 100 µM,> 100 µM,,> 100 µM,,> 100 µM,> 100 µM,> 100 µM,> 100 µM,,,,,,,,,
C[N+](C)(C)CC(=O)N/N=C\c1c(O)ccc2ccccc12,56.5 µM,> 100 µM,> 100 µM,> 100 µM,> 100 µM,> 100 µM,> 100 µM,53.6 µM,> 100 µM,70.5 µM,,,,,,,,,
Nc1nc(NCc2ccccc2)cc(NCc2ccccc2)n1,13.4 µM,20 µM,50.4 µM,5.97 µM,27.3 µM,24.6 µM,> 100 µM,19.2 µM,> 100 µM,32.5 µM,,,,,,,,,
N#CC(C#N)=CNC(=S)Nc1ccc(S(=O)(=O)Nc2nccs2)cc1,,> 100 µM,> 100 µM,> 100 µM,> 100 µM,,> 100 µM,,,> 100 µM,,,,,,,,,
C=C1C(=O)O[C@H]2[C@@H]3O[C@@](C)(CC/C=C(\C)CCC[C@@H]2C)[C@H](O)C[C@@H]13,25.9 µM,2.96 µM,31.2 µM,10.1 µM,8.86 µM,,> 100 µM,5.67 µM,> 100 µM,,,,,,,,,,
C/C(=N\NC(N)=O)C(CN1CCOCC1)C(c1ccccc1)c1c(O)c2ccccc2oc1=O (stereo not given),> 100 µM,> 100 µM,> 100 µM,> 100 µM,> 100 µM,> 100 µM,> 100 µM,> 100 µM,> 100 µM,,,,,,,,,,
CC(=O)Nc1ccc2c3c(cc(O)c2c1)N(C(=O)CCCCCCC(=O)Nc1ccc2c4c(cc(O)c2c1)N(C(=O)OC(C)(C)C)CC4CCl)CC3CCl (stereo not given),,0.346 µM,0.663 µM,0.332 µM,0.284 µM,,> 36.3 µM,0.405 µM,> 100 µM,0.245 µM,,,,,,,,,
O=C1/C(=C/c2ccc(Cl)cc2)NC(=S)N1CN1CCCCC1,62 µM,> 100 µM,> 100 µM,> 100 µM,64.1 µM,76.5 µM,45.3 µM,49.3 µM,> 100 µM,,,,,,,,,,
COc1nc2c(c(=O)[nH]1)N=C(c1ccc([N+](=O)[O-])cc1)CC(c1ccccc1)N2 (stereo not given),,> 100 µM,> 100 µM,> 100 µM,> 100 µM,> 100 µM,> 100 µM,> 100 µM,> 100 µM,> 100 µM,,,,,,,,,
COc1cc(/C=C2\C(=O)Nc3ccc(O)cc32)cc(OC)c1OC,> 100 µM,24.8 µM,33.5 µM,,59.6 µM,21.3 µM,> 100 µM,17.1 µM,> 100 µM,35.9 µM,13.5 µM,6.76 µM,17.5 µM,20 µM,3.53 µM,10.5 µM,4.24 µM,3.83 µM,8.69 µM
CSc1ccc(/C=C2\N=C(c3ccccc3)N(NC(=O)c3c(Cl)c(Cl)c(Cl)c(Cl)c3-c3nc4ccccc4[nH]3)C2=O)cc1,> 100 µM,83 µM,> 100 µM,> 100 µM,95.9 µM,,> 100 µM,> 100 µM,66.4 µM,28 µM,,,,,,,,,
O=C(O)OC12CCCCCC1C(=O)C1CCCCC12 (stereo not given),,> 100 µM,,,> 100 µM,> 100 µM,> 100 µM,> 100 µM,> 100 µM,> 100 µM,,,,,,,,,
C/C(=C\COP(=O)(O)CP(=O)(O)O)CC/C=C(\C)CNc1ccccc1,> 100 µM,> 100 µM,> 100 µM,,> 100 µM,> 100 µM,> 100 µM,> 100 µM,> 100 µM,> 100 µM,,,,,,,,,
CSC(SC)=C1Sc2cccc(Cl)c2S1,,> 100 µM,> 100 µM,,41.3 µM,> 100 µM,> 100 µM,63.8 µM,> 100 µM,> 100 µM,,,,,,,,,
Nc1cc2c(C3OC(CO)C(O)C3O)[nH]nc2c(=S)[nH]1 (stereo not given),,> 100 µM,> 100 µM,,> 100 µM,> 100 µM,> 100 µM,> 100 µM,> 100 µM,> 100 µM,,,,,,,,,
COc1ccc(C2OC2C(=O)C23CC4CC(CC(C4)C2)C3)cc1 (stereo not given),50.4 µM,> 100 µM,> 100 µM,> 100 µM,,> 100 µM,> 100 µM,> 100 µM,> 100 µM,> 100 µM,,,,,,,,,
CCCCc1c2c([n+]([O-])c3c1CCCC3)CCCC2,,> 100 µM,,,> 100 µM,> 100 µM,> 100 µM,5.33 µM,> 100 µM,> 100 µM,,,,,,,,,

# — PubChem BioAssay (NCI)
